Converted amounts (≈) assume the structure as drawn. Read-outs that look alike come from different tables or passages of the source.
Key:
[1] = system: E. coli N; test: Susceptibility testing (MIC, modified NCCLS method); type: cell-based, Escherichia coli; conditions: Escherichia coli, read-out: MIC
Protocol: (§1) The NCCLS (National Committee for Clinical Laboratory Standards) method to determine MIC's of antimicrobial compounds was modified for high-throughput screening. All stocks of tested compounds were prepared in either water or in dimethylsulfoxide (DMSO), depending on the solubility. […] Briefly 20 2-fold serial dilutions of testing compounds from the highest concentration were made in a 384-well microtiter plate. Each well was inoculated with testing bacteria in broth to a final concentration of approximately 1-1.5×10^6 cells/ml. Bacterial growth was determined by the increase of optical density at 600 nm using a microplate reader (Tecan SpectraFluor Plus).

[2] = system: E. coli/TEM-1; test: as above; type: cell-based, Escherichia coli; conditions: Escherichia coli
Protocol: as §1

[3] = system: Staphylococcus aureus; test: as above; type: cell-based; conditions: Staphylococcus aureus
Outline: (§2)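 Readout OD600 increase. Compounds (aqueous or DMSO stocks) serially diluted 2-fold across 20 concentrations, then inoculated with bacterial broth culture to final ~1-1.5×10^6 cells/ml; screening-adapted NCCLS microdilution.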

[4] = system: E. faecalis; test: as above; type: cell-based, Enterococcus faecalis; conditions: for MIC: Enterococcus faecalis
Outline: as §2

[5] = system: E. cloacae; test: as above; type: cell-based, Enterobacter cloacae; conditions: for MIC: Enterobacter cloacae
Outline: as §2

[6] = system: E. aerogenes; test: as above; type: cell-based, Enterobacter aerogenes; conditions: for MIC: Klebsiella aerogenes
Outline: as §2

[7] = system: K. pneumoniae; test: as above; type: cell-based, Klebsiella pneumoniae; conditions: Klebsiella pneumoniae
Outline: as §2

[8] = system: S. epidermidis; test: as above; type: cell-based, Staphylococcus epidermidis; conditions: S. epidermidis (5)
Protocol: as §1

[9] = system: S. pneumoniae; test: as above; type: cell-based, Streptococcus pneumoniae; conditions: S. pneumoniae (3)
Protocol: as §1

[10] = system: E. faecium; test: as above; type: cell-based, Enterococcus faecium; conditions: E. faecium (6)
Protocol: as §1

[11] = system: P. aeruginosa; test: as above; type: cell-based, Pseudomonas aeruginosa; conditions: Pseudomonas aeruginosa, read-out: MIC
Outline: as §2

[12] = system: E coli R(Tem1); test: Inhibition of bacterial growth (IC50, OD600); type: cell-based; conditions: for IC50 ratio N/R: N versus R (Tem1)
Protocol: Compounds of the invention were tested for their ability to inhibit the growth of β-lactam sensitive and resistant bacteria by contacting samples of such cells with various dilutions of the compositions, incubating the cells at 37° C. in the presence of these compositions and then measuring the number of viable cells present in each sample.
Two compounds of the invention were tested, Compound (9) and Compound (1l). Incubation of bacterial cells was performed for two time periods, 10 hours and 20 hours. Four E. coli strains were used for the test. These strains were all derived from the strain NovaBlue (NovaGen Inc., Madison, Wis.). E. coli N is a normal, β-lactam sensitive strain. E coli R(Tem1) is a β-lactam resistant strain with a β-lactamase gene on a plasmid. E. coli C(Tem4O-15) is a β-lactam resistant strain with a β-lactam inhibitor resistant β-lactamase gene, and E. coli C(Tem3 1-27) is β-lactam resistant strain with an alternative β-lactam inhibitor resistant β-lactamase gene.
The various E. coli strains were each treated with dilutions of the compounds of the invention. […] The number of viable cells at each time point was determined by measuring the OD600 of each cell sample.
After measuring the number of viable cells present, the IC50 for each sample was determined. […] In addition, both compounds were effective at inhibiting the growth of both antibiotic sensitive and resistant bacterial cells.

[13] = system: UDP-glucuronosyltransferase; test: Glucuronidation assay; type: in vitro ADME, human; conditions: 100 μM, 100 μg human liver microsome, 37° C., 1 hour, TLC
Protocol: Assays were conducted as outlined in Example 15, using 100 μM Compound (9), triclosan or cephalothin incubated with 100 μg human liver microsome at 37° C. for 1 hour. The reactants were analyzed on TLC plate, and glucuronidated compounds were visualized by MolecularDynamics Storm 820.
Glucuronidation assay was performed based on modified procedure from Bansal and Gessner (1980) Anal. Biochem. 109:321-329. Reactions were performed in 50 mM Tris buffer, pH 7.6, containing 10 mM MgCl2, ImM UDPGA, 0.04 μCi of ^14C-UDPGA, 0.1 mM substrate, and 100 μg human liver microsome. The final volume was 100 μL. Reactions were incubated at 37° C. for one hour and the reactants extracted with 200 μL of 100% ethanol. The protein was removed by centrifugation at 12,000×g for 5 minutes in an Eppendorf centrifuige. The supernatant was dried and resuspended in 30 μL of 100% methanol and spotted on a Whatman glass-backed linear k TLC plate. Chromatography was performed in a mixture of 1-butanol/acetone/acetic acid/water (35:35:10:20). The TLC plate was then dried and exposed to phosphor imager overnight, then monitored by imaging (MolecularDynamics Storm 820).

[14] = system: TEM-52, an antibiotic-resitant E. coli; conditions: TEM-52 versus wild-type; Fletcher (2001); cited from earlier work
[15] = system: O=C(Cc1cccs1)N[C@@H]1C(=O)N2C(C(=O)O)=C(/C=C/c3ccc([N+](=O)[O-])cc3[N+](=O)[O-])CS[C@H]12; test: purified protein, by the assay type; conditions: other: progress curve analysis at 16 μM Compound (9) and […] TEM-1 β-lactamase, 37° C.

CC(=O)OCC1=C(C(=O)O)N2C(=O)[C@@H](NC(=O)Cc3cccs3)[C@H]2SC1 [Cephalothin, cephalothin, reference compound]
MIC ([1]; E. coli, BLA neg., drug alone): 16 µg/mL (≈ 40.4 µM)
MIC [2]: > 32 µg/mL
MIC ([3]; ATCC11632, ATCC 11632, methicillin-sensitive, β-lactamase Neg./Pos., read-out: MIC): 0.2 µg/mL (≈ 0.504 µM)
MIC ([3]; ATCC13301, ATCC 13301, methicillin-sensitive, β-lactamase Positive, read-out: MIC): 6.25 µg/mL (≈ 15.8 µM)
MIC ([3]; ATCC14154, ATCC 14154, methicillin-sensitive, β-lactamase Positive, read-out: MIC): 0.39 µg/mL (≈ 0.984 µM)
MIC ([3]; ATCC33591, ATCC 33591, methicillin-resistant, β-lactamase Positive, read-out: MIC): 0.56 µg/mL (≈ 1.41 µM)
MIC ([3]; ATCC33592, ATCC 33592, methicillin-sensitive, β-lactamase Positive, read-out: MIC): 1.56 µg/mL (≈ 3.93 µM)
MIC ([3]; ATCC33593, ATCC 33593, methicillin-resistant, β-lactamase Positive, read-out: MIC): 0.78 µg/mL (≈ 1.97 µM)
MIC ([3]; ATCC33594, ATCC 33594, methicillin-sensitive, β-lactamase Positive, read-out: MIC): 0.2 µg/mL (≈ 0.504 µM)
MIC ([3]; ATCC43300, ATCC 43300, methicillin-sensitive, β-lactamase Neg./Pos., read-out: MIC): 0.39 µg/mL (≈ 0.984 µM)
MIC ([3]; ATCC700260, ATCC 700260, methicillin-sensitive, β-lactamase Positive, read-out: MIC): 0.39 µg/mL (≈ 0.984 µM)
MIC ([3]; ATCC700698, ATCC 700698, methicillin-resistant, β-lactamase Negative, read-out: MIC): 100 µg/mL (≈ 252 µM)
MIC ([3]; ATCC700699, ATCC 700699, methicillin-resistant, β-lactamase Negative, read-out: MIC): 100 µg/mL (≈ 252 µM)
MIC ([3]; ATCC700787, ATCC 700787, methicillin-resistant, β-lactamase Positive, read-out: MIC): 50 µg/mL (≈ 126 µM)
MIC ([3]; ATCC700788, ATCC 700788, methicillin-resistant, β-lactamase Positive, read-out: MIC): 3.13 µg/mL (≈ 7.9 µM)
MIC ([3]; ATCC700789, ATCC 700789, methicillin-resistant, β-lactamase Positive, read-out: MIC): 6.25 µg/mL (≈ 15.8 µM)
MIC ([3]; MRSA, MRSA tested (7), read-out: Geometric mean of MIC): 10.2 µg/mL (≈ 25.9 µM)
MIC ([3]; MSSA, MSSA tested (7), read-out: Geometric mean of MIC): 0.58 µg/mL (≈ 1.46 µM)
MIC ([3]; S. aureus (14), read-out: Geometric mean of MIC): 2.45 µg/mL (≈ 6.18 µM)
MIC ([3]; S. aureus β-lactamase negative (2), read-out: Geometric mean of MIC): 100 µg/mL (≈ 252 µM)
MIC ([3]; S. aureus β-lactamase positive (12), read-out: Geometric mean of MIC): 1.32 µg/mL (≈ 3.33 µM)
MIC range ([4]; E. faecalis (7)): 25 to 100 µg/mL
MIC ([4]; E. faecalis (7), read-out: GM* MIC (geometric mean)): 61 µg/mL (≈ 154 µM)
MIC range ([5]; E. cloacae (1)): >100 µg/mL
MIC ([5]; E. cloacae (1), read-out: GM* MIC (geometric mean)): > 100 µg/mL
MIC range ([6]; E. aerogenes (5)): >100 µg/mL
MIC ([6]; E. aerogenes (5), read-out: GM* MIC (geometric mean)): > 100 µg/mL
MIC ([7]; K. pneumoniae (5), read-out: GM* MIC (geometric mean)): > 66 µg/mL
MIC range [8]: 0.2 to 25 µg/mL
MIC ([8]; Staphylococcus epidermidis, read-out: GM* MIC (geometric mean)): 1.81 µg/mL (≈ 4.57 µM)
MIC range [9]: 0.06 to 2 µg/mL
MIC ([9]; Streptococcus pneumoniae, read-out: GM* MIC (geometric mean)): 0.247 µg/mL (≈ 0.623 µM)
MIC range [10]: >100 µg/mL
MIC ([10]; Enterococcus faecium, read-out: GM* MIC (geometric mean)): > 100 µg/mL

O=C(Cn1cnnn1)NC1C(=O)N2C(C(=O)O)=C(COc3cc(Cl)ccc3Oc3ccc(Cl)cc3Cl)CS[C@H]12 (stereo partly shown) [Compound 29, 3-(2-(2,4-Dichlorophenoxy)-5-chlorophenoxy)methyl-7-(1-tetrazoleacetamido)-3-cephem-4-carboxylic acid]
MIC ([1]; E. coli (N)): 2 µg/mL (≈ 3.27 µM)
MIC [2]: 0.063 µg/mL (≈ 0.103 µM)
MIC ([3]; ATCC11632, S. aureus ATCC 11632, read-out: MIC): 0.063 µg/mL (≈ 0.103 µM)
MIC ([3]; ATCC33594, S. aureus ATCC 33594, read-out: MIC): 0.063 µg/mL (≈ 0.103 µM)
MIC ([3]; ATCC700260, S. aureus ATCC 700260, read-out: MIC): 0.063 µg/mL (≈ 0.103 µM)
MIC ([3]; ATCC700699, S. aureus ATCC 700699, read-out: MIC): 0.125 µg/mL (≈ 0.204 µM)
MIC ([4]; ATCC49757, E. faecalis ATCC 49757, read-out: MIC): 8 µg/mL (≈ 13.1 µM)
MIC ([4]; ATCC700802, E. faecalis ATCC 700802, read-out: MIC): 16 µg/mL (≈ 26.2 µM)
MIC ([5]; ATCC23355, E. cloacae ATCC 23355, read-out: MIC): 1 µg/mL (≈ 1.63 µM)
MIC ([6]; ATCC35028, E. aerogenes ATCC 35028, read-out: MIC): 32 µg/mL (≈ 52.3 µM)
MIC ([7]; ATCC51503, K. pneumoniae ATCC 51503, read-out: MIC): 8 µg/mL (≈ 13.1 µM)
MIC ([7]; ATCC700721, K. pneumoniae ATCC 700721, read-out: MIC): 1 µg/mL (≈ 1.63 µM)
MIC ([11]; ATCC21726, P. aeruginosa ATCC 21726): > 32 µg/mL
MIC ([11]; ATCC29872, P. aeruginosa ATCC 29872): > 32 µg/mL
melting point: 112 °C

Oc1cc(Cl)ccc1Oc1ccc(Cl)cc1Cl [Triclosan, triclosan, reference compound]
IC50 ratio N/R ([12]; 10 hours): N/R = 1555x
IC50 ratio N/R ([12]; 20 hours): N/R = 2.5x
IC50 ([12]; Escherichia coli, 10 h, read-out: IC50 10 hours, Cell R (Tem1), 10 hours): 0.166 nM
IC50 ([12]; read-out: IC50 10 hours, Cell R (Tem1), 10 hours): 0.24 nM
glucuronidation by human liver microsome [13]: glucuronidated

CO/N=C(\C(=O)N[C@@H]1C(=O)N2C(C(=O)O)=C(COC(C)=O)CS[C@H]12)c1csc(N)n1 [cefotaxime]
fold more resistant than wild-type E coli [14]: more than 500 fold

TEM-1 β-lactamase (Escherichia coli)
Km [15]: 15 µM
kcat [15]: 3.3 s⁻¹
kcat/Km [15]: 220000 M⁻¹ s⁻¹

From US20020115642A1, “Beta-lactam antibiotics” (priority 2000, published 2002)
